Assay results taken from publication PMC4490784, “Compensatory induction of MYC expression by sustained CDK9 inhibition via a BRD4-dependent mechanism” (eLife, 2015).

Experiments:
Assay in all cases: KINOMEscan binding assay
CDK4-cyclinD3 = molecular target: T1, CDK4-cyclinD3 (Homo sapiens, UniProt P11802); conditions: 1 µM i-CDK9; read-out: % Retention on Solid Support
T1 construct: purchased DiscoveRx KINOMEscan
In short: (§1)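 Competitive displacement at the ATP site served as the measure. Over 400 kinases were included, each exposed to i-CDK9 at 1 and at 10 µM.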

FLT3(D835Y) = molecular target: T2, FLT3(D835Y) (Homo sapiens, UniProt P36888, D835Y); conditions: read-out: % Retention on Solid Support
T2 construct: purchased DiscoveRx KINOMEscan
In short: as §1

EGFR(S752-I759del) = molecular target: T3, EGFR(S752-I759del) (Homo sapiens, UniProt P00533, DEL752-759)
T3 construct: purchased DiscoveRx KINOMEscan
In short: as §1

[1] = molecular target: T4, ABL1(E255K)-phosphorylated (Homo sapiens, UniProt P00519, E255K); conditions: 1 µM i-CDK9; read-out: % Retention on Solid Support
T4 construct: purchased DiscoveRx KINOMEscan
In short: as §1

p38-alpha = molecular target: T5, p38-alpha (Homo sapiens, UniProt Q16539)
T5 construct: purchased DiscoveRx KINOMEscan
In short: as §1

CAMK2A = molecular target: T6, CAMK2A (Homo sapiens, UniProt Q9UQM7); conditions: read-out: % Retention on Solid Support
T6 construct: purchased DiscoveRx KINOMEscan
In short: as §1

TNK1 = molecular target: T7, TNK1 (Homo sapiens, UniProt Q13470); conditions: read-out: % Retention on Solid Support
T7 construct: purchased DiscoveRx KINOMEscan
In short: as §1

SLK = molecular target: T8, SLK (Homo sapiens, UniProt Q9H2G2); conditions: read-out: % Retention on Solid Support
T8 construct: purchased DiscoveRx KINOMEscan
In short: as §1

MLK2 = molecular target: T9, MLK2 (Homo sapiens, UniProt Q02779); conditions: read-out: % Retention on Solid Support
T9 construct: purchased DiscoveRx KINOMEscan
In short: as §1

[2] = molecular target: T10, RSK4(Kin.Dom.2-C-terminal) (Homo sapiens, UniProt Q9UK32)
T10 construct: RSK4(Kin.Dom.2-C-terminal); purchased DiscoveRx KINOMEscan
In short: as §1

MAP3K2 = molecular target: T11, MAP3K2 (Homo sapiens, UniProt Q9Y2U5); conditions: read-out: % Retention on Solid Support
T11 construct: purchased DiscoveRx KINOMEscan
In short: as §1

DCAMKL2 = molecular target: T12, DCAMKL2 (Homo sapiens, UniProt Q8N568); conditions: read-out: % Retention on Solid Support
T12 construct: purchased DiscoveRx KINOMEscan
In short: as §1

INSR = molecular target: T13, INSR (Homo sapiens, UniProt P06213); conditions: read-out: % Retention on Solid Support
T13 construct: purchased DiscoveRx KINOMEscan
In short: as §1

CAMK2B = molecular target: T14, CAMK2B (Homo sapiens, UniProt Q13554); conditions: read-out: % Retention on Solid Support
T14 construct: purchased DiscoveRx KINOMEscan
In short: as §1

NEK1 = molecular target: T15, NEK1 (Homo sapiens, UniProt Q96PY6); conditions: read-out: % Retention on Solid Support
T15 construct: purchased DiscoveRx KINOMEscan
In short: as §1

EGFR(T790M) = molecular target: T16, EGFR(T790M) (Homo sapiens, UniProt P00533, T790M); conditions: 1 µM i-CDK9
T16 construct: purchased DiscoveRx KINOMEscan
In short: as §1

ZAK = molecular target: T17, ZAK (Homo sapiens, UniProt Q9NYL2); conditions: read-out: % Retention on Solid Support
T17 construct: purchased DiscoveRx KINOMEscan
In short: as §1

BMPR1B = molecular target: T18, BMPR1B (Homo sapiens, UniProt O00238); conditions: read-out: % Retention on Solid Support
T18 construct: purchased DiscoveRx KINOMEscan
In short: as §1

CDC2L5 = molecular target: T19, CDC2L5 (Homo sapiens, UniProt Q14004); conditions: 1 µM i-CDK9
T19 construct: purchased DiscoveRx KINOMEscan
In short: as §1

LKB1 = molecular target: T20, LKB1 (Homo sapiens, UniProt Q15831); conditions: read-out: % Retention on Solid Support
T20 construct: purchased DiscoveRx KINOMEscan
In short: as §1

YANK3 = molecular target: T21, YANK3 (Homo sapiens, UniProt Q86UX6); conditions: read-out: % Retention on Solid Support
T21 construct: purchased DiscoveRx KINOMEscan
In short: as §1

MYO3B = molecular target: T22, MYO3B (Homo sapiens, UniProt Q8WXR4); conditions: read-out: % Retention on Solid Support
T22 construct: purchased DiscoveRx KINOMEscan
In short: as §1

DDR1 = molecular target: T23, DDR1 (Homo sapiens, UniProt Q08345); conditions: read-out: % Retention on Solid Support
T23 construct: purchased DiscoveRx KINOMEscan
In short: as §1

LRRK2 = molecular target: T24, LRRK2 (Homo sapiens, UniProt Q5S007); conditions: 1 µM i-CDK9; read-out: % Retention on Solid Support
T24 construct: purchased DiscoveRx KINOMEscan
In short: as §1

FAK = molecular target: T25, FAK (Homo sapiens, UniProt Q05397); conditions: read-out: % Retention on Solid Support
T25 construct: purchased DiscoveRx KINOMEscan
In short: as §1

PIK3CA(H1047L) = molecular target: T26, PIK3CA(H1047L) (Homo sapiens, UniProt P42336, H1047L); conditions: read-out: % Retention on Solid Support
T26 construct: purchased DiscoveRx KINOMEscan
In short: as §1

IKK-beta = molecular target: T27, IKK-beta (Homo sapiens, UniProt O14920); conditions: read-out: % Retention on Solid Support
T27 construct: purchased DiscoveRx KINOMEscan
In short: as §1

YSK1 = molecular target: T28, YSK1 (Homo sapiens, UniProt O00506); conditions: read-out: % Retention on Solid Support
T28 construct: purchased DiscoveRx KINOMEscan
In short: as §1

TTK = molecular target: T29, TTK (Homo sapiens, UniProt P33981); conditions: read-out: % Retention on Solid Support
T29 construct: purchased DiscoveRx KINOMEscan
In short: as §1

NEK3 = molecular target: T30, NEK3 (Homo sapiens, UniProt P51956); conditions: 1 µM i-CDK9; read-out: % Retention on Solid Support
T30 construct: purchased DiscoveRx KINOMEscan
In short: as §1

T5 sequence (Q16539 whole entry): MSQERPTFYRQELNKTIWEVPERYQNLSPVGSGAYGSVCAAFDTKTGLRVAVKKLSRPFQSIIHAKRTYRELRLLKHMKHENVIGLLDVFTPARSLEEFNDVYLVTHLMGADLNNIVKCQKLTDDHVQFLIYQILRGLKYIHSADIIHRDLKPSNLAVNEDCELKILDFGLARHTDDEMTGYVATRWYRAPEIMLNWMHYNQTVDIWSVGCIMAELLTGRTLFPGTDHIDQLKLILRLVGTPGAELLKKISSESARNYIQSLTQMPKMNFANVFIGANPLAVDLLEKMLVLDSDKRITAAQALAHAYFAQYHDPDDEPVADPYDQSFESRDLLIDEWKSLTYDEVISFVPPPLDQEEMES
T25 sequence (Q05397 whole entry): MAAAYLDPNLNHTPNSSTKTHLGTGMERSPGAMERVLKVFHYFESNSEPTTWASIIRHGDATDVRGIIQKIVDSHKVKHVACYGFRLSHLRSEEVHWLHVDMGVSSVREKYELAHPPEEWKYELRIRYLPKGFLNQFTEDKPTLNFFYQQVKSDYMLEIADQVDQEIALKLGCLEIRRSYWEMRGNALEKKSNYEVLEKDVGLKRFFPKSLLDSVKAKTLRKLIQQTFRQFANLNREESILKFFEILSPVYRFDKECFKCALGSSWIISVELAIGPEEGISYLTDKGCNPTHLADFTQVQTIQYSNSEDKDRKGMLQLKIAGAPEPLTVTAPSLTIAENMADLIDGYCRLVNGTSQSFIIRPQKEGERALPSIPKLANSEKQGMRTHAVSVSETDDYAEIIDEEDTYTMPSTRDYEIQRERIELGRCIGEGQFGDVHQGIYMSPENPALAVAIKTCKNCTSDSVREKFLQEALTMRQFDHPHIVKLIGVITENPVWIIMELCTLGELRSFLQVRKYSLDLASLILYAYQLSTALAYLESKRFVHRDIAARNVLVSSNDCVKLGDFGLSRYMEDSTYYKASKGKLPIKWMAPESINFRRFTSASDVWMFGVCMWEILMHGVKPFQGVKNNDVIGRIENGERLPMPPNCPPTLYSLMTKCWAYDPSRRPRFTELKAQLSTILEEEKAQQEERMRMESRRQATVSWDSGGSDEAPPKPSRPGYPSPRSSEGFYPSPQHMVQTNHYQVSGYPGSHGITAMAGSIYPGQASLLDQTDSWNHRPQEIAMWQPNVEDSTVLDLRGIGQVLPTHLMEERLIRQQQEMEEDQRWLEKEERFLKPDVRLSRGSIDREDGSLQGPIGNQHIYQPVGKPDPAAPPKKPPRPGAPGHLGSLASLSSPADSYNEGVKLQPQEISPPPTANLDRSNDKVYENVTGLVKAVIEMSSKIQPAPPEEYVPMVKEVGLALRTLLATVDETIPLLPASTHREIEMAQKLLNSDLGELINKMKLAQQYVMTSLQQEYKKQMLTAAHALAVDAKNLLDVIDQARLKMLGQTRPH
T18 sequence (O00238 14-502): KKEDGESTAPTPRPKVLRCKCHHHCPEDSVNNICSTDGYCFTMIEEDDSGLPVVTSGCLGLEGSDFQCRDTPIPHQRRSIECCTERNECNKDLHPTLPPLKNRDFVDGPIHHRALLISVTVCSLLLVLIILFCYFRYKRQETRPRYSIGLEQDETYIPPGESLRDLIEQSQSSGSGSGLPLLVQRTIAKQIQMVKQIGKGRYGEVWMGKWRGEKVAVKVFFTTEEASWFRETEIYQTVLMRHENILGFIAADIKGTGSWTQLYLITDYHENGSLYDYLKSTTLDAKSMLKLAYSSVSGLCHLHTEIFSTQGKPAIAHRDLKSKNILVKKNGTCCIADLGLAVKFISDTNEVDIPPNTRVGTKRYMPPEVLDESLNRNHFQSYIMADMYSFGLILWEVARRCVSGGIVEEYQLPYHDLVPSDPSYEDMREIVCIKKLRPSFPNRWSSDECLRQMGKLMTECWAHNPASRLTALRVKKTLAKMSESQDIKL
T21 sequence (Q86UX6 whole entry): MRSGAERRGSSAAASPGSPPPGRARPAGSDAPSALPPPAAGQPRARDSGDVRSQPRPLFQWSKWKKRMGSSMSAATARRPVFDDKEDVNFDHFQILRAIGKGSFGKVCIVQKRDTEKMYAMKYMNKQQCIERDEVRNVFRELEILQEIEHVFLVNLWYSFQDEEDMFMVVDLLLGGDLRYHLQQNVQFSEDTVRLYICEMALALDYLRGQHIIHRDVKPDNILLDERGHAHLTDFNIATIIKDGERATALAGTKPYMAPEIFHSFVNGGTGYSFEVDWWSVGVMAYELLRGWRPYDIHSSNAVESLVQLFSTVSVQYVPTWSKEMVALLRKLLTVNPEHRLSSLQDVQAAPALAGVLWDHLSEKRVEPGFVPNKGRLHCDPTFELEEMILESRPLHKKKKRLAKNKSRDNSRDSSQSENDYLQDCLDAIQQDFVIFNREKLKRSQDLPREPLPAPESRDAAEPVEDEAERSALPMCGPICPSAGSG
T10 sequence (Q9UK32 401-745 limits assumed): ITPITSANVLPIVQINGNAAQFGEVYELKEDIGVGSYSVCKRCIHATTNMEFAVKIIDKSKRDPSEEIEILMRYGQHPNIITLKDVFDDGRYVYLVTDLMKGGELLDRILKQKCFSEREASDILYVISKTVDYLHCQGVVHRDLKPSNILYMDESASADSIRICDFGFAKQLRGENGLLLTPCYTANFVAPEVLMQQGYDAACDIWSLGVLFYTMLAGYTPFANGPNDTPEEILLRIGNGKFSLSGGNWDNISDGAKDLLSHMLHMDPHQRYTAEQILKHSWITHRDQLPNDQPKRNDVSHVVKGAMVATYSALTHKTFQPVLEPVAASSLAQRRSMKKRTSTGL
T11 sequence (Q9Y2U5 whole entry): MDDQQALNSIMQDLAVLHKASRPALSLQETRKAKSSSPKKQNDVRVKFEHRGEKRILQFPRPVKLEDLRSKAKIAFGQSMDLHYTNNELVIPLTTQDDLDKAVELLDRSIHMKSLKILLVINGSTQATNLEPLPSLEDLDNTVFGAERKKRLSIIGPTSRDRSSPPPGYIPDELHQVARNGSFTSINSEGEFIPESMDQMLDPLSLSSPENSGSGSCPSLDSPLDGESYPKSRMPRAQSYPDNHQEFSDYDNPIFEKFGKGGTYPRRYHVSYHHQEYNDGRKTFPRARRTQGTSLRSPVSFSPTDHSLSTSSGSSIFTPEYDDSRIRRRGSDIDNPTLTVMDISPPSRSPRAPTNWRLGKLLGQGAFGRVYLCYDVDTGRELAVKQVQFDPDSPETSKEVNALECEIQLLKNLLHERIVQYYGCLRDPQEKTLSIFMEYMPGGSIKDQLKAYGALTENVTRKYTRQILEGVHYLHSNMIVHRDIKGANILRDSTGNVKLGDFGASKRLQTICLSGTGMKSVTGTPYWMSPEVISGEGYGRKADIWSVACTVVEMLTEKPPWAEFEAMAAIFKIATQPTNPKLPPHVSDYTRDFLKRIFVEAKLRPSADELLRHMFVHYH
T17 sequence (Q9NYL2 whole entry): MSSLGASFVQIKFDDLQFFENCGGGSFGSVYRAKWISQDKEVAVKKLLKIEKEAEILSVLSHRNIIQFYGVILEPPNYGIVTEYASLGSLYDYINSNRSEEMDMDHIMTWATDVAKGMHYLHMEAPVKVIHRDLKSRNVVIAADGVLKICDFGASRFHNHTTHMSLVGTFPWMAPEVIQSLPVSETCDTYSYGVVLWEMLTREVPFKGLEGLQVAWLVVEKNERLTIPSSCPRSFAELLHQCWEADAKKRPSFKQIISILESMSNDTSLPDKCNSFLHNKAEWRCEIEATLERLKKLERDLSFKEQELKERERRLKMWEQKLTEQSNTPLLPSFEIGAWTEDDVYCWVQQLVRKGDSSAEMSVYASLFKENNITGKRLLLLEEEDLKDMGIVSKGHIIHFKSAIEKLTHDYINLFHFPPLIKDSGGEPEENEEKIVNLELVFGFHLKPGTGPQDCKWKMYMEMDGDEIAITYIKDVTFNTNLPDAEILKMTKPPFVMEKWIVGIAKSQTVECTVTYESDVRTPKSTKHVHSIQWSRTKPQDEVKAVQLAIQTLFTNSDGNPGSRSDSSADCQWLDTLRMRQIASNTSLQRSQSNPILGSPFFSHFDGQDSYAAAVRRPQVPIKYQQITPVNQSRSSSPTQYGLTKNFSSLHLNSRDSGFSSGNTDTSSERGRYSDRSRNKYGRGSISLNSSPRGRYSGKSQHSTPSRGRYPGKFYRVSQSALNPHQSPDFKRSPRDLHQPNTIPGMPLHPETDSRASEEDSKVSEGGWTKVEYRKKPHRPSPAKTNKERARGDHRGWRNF
T28 sequence (O00506 whole entry): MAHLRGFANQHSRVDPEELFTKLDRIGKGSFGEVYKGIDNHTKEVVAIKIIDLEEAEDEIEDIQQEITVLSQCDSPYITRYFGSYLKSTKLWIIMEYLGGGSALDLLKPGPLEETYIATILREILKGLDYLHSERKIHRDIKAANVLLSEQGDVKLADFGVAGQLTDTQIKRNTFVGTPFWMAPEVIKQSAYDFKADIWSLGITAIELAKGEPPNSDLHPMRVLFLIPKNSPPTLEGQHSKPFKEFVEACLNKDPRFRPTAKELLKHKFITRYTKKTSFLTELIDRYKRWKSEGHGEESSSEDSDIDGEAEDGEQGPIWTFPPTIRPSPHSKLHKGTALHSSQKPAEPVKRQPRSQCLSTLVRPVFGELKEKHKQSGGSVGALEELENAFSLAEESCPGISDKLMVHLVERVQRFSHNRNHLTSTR
T20 sequence (Q15831 whole entry): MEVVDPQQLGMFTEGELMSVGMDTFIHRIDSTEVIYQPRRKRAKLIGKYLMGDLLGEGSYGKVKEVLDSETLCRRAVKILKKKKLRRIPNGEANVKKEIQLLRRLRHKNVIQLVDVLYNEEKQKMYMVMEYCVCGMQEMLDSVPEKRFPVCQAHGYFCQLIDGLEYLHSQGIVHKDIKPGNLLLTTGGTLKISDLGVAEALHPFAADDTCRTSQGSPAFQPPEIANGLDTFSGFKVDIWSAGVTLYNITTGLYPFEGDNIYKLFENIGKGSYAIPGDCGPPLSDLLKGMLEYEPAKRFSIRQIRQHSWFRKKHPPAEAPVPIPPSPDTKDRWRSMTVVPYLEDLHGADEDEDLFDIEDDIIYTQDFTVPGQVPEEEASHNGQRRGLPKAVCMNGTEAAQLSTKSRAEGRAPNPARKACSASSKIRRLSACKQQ

## N[C@H]1CC[C@H](Nc2cc(-c3cccc(NCc4cccc(F)c4)n3)c(Cl)cn2)CC1 [i-CDK9, N2′-(trans-4-aminocyclohexyl)-5′-chloro-N6-(3-fluorobenzyl)-2,4′-bipyridine-2′,6-diamine]
CDK4-cyclinD3
  remaining binding at 1 µM: 100%
FLT3(D835Y); 1 µM i-CDK9
  remaining binding at 1 µM: 100%
FLT3(D835Y); 10 µM i-CDK9
  remaining binding at 10 µM: 68%
EGFR(S752-I759del); 1 µM i-CDK9
  % Retention on Solid Support: 77%
EGFR(S752-I759del); 10 µM i-CDK9
  % Retention on Solid Support: 53%
[1]
  remaining binding at 1 µM: 74%
p38-alpha; 1 µM i-CDK9
  % Retention on Solid Support: 85%
p38-alpha; 10 µM i-CDK9
  % Retention on Solid Support: 100%
CAMK2A; 1 µM i-CDK9
  remaining binding at 1 µM: 91%
CAMK2A; 10 µM i-CDK9
  remaining binding at 10 µM: 81%
TNK1; 1 µM i-CDK9
  remaining binding at 1 µM: 100%
TNK1; 10 µM i-CDK9
  remaining binding at 10 µM: 65%
SLK; 1 µM i-CDK9
  remaining binding at 1 µM: 100%
SLK; 10 µM i-CDK9
  remaining binding at 10 µM: 100%
MLK2; 1 µM i-CDK9
  remaining binding at 1 µM: 100%
MLK2; 10 µM i-CDK9
  remaining binding at 10 µM: 100%
[2]; 1 µM i-CDK9
  % Retention on Solid Support: 53%
[2]; 10 µM i-CDK9
  % Retention on Solid Support: 51%
MAP3K2; 1 µM i-CDK9
  remaining binding at 1 µM: 23%
MAP3K2; 10 µM i-CDK9
  remaining binding at 10 µM: 100%
DCAMKL2; 1 µM i-CDK9
  remaining binding at 1 µM: 100%
DCAMKL2; 10 µM i-CDK9
  remaining binding at 10 µM: 65%
INSR; 1 µM i-CDK9
  remaining binding at 1 µM: 100%
INSR; 10 µM i-CDK9
  remaining binding at 10 µM: 81%
CAMK2B; 1 µM i-CDK9
  remaining binding at 1 µM: 100%
CAMK2B; 10 µM i-CDK9
  remaining binding at 10 µM: 81%
NEK1; 1 µM i-CDK9
  remaining binding at 1 µM: 70%
NEK1; 10 µM i-CDK9
  remaining binding at 10 µM: 100%
EGFR(T790M)
  % Retention on Solid Support: 100%
ZAK; 1 µM i-CDK9
  remaining binding at 1 µM: 100%
ZAK; 10 µM i-CDK9
  remaining binding at 10 µM: 93%
BMPR1B; 1 µM i-CDK9
  remaining binding at 1 µM: 100%
BMPR1B; 10 µM i-CDK9
  remaining binding at 10 µM: 89%
CDC2L5
  % Retention on Solid Support: 100%
LKB1; 1 µM i-CDK9
  remaining binding at 1 µM: 93%
LKB1; 10 µM i-CDK9
  remaining binding at 10 µM: 96%
YANK3; 1 µM i-CDK9
  remaining binding at 1 µM: 89%
YANK3; 10 µM i-CDK9
  remaining binding at 10 µM: 50%
MYO3B; 1 µM i-CDK9
  remaining binding at 1 µM: 100%
MYO3B; 10 µM i-CDK9
  remaining binding at 10 µM: 36%
DDR1; 1 µM i-CDK9
  remaining binding at 1 µM: 100%
DDR1; 10 µM i-CDK9
  remaining binding at 10 µM: 92%
LRRK2
  remaining binding at 1 µM: 100%
FAK; 1 µM i-CDK9
  remaining binding at 1 µM: 88%
FAK; 10 µM i-CDK9
  remaining binding at 10 µM: 99%
PIK3CA(H1047L); 1 µM i-CDK9
  remaining binding at 1 µM: 99%
PIK3CA(H1047L); 10 µM i-CDK9
  remaining binding at 10 µM: 100%
IKK-beta; 1 µM i-CDK9
  remaining binding at 1 µM: 100%
IKK-beta; 10 µM i-CDK9
  remaining binding at 10 µM: 87%
YSK1; 1 µM i-CDK9
  remaining binding at 1 µM: 98%
YSK1; 10 µM i-CDK9
  remaining binding at 10 µM: 96%
TTK; 1 µM i-CDK9
  remaining binding at 1 µM: 100%
TTK; 10 µM i-CDK9
  remaining binding at 10 µM: 100%
NEK3
  remaining binding at 1 µM: 100%
